From patent US20100248229A1, “INVITRO HUMAN EMBRYONIC MODEL AND A METHOD THEREOF” (Stempeutics Research Private Limited, priority 2007, published 2010) come the findings set out here.

What all share (assay type): cell-based, human
Data set [1] has as its system EBs. The experiment in a line: Effect on the germ lineages: RT-PCR of pluripotency and lineage markers in four day old EBs. Particulars: 12 pg/ml for 2 to 4 days. The protocol:
Day 4 to 10 old EBs were maintained for 2 to 10 days in presence or absence of various (atleast 8 different) dilutions of the drug supplemented to the standard EB culture media. At the end of the incubation period the EBs were collected and the RNA is isolated from both the control and treated groups. The RNA was used for RT-PCR analysis of a set of developmentally important genes, pluripotency markers like (Nanog, Oct4, Sox2, and HMGB 1), lineage markers for ectoderm, endoderm, mesoderm and trophectoderm listed in table 1, 2, 3, 4, and also for a set of epigenetic signature genes (table nos. 6-7) identified by applicant. Alteration in the expression patterns of these genes in presence or absence of the compound in these EBs indicates their embryotoxic effect and potential to perturb the formation of specific or multiple lineages.
Four day old EBs were exposed to gram negative bacterial endotoxins/LPS at a concentration of 12 pg/ml for 2 to 4 days. The EBs were collected and analysed for pluripotency markers like Oct4, Sox2, HMGB1, and lineage markers like Nestin, PIII-tubulin, GATA4, BMP2, Brachury, Hand1 and BMP4 were studied, by RT-PCR. […] HMGB 1 expression was not found in these normal EBs. […] However, the mesoderm markers BMP2, Hand1, BMP4 and Brachury were silenced in the endotoxin treated EBs. […] This also explains many birth defects, which occurs as a result of gram negative bacterial infections. The expression of the LPS inducible cytokine and pluripotency associated gene HMGB1 in the EBs upon LPS exposure indicate its probable role in the formation of poorly formed embryos during such infections.

Data set [2] concerns EBs. The experiment in a line: In vitro 3-D embryo implantation model: attachment and outgrowth of EBs. The source says: An in vitro 3-dimensional (3-D) model/system for embryo implantation employing EBs in place of embryos was developed. The EBs collected on different days were subjected to implantation/attachment on the artificial substratum/surface.
To make this artificial surface regular tissue culture dishes or organ culture dishes were coated with about 1 to 2 mm thick coating of 0.5 to 1% low melting or high melting agarose in DPBS. A few wells of about 1 to 2 mm diameter are created using sterile paper disks, preferable in the center of the dish, which were removed after the agarose solidifies. Alternatively a horizontal tube like structure can be created by casting the gel over a fine glass capillary, which can be withdrawn as the agarose solidifies. This cavity/depression or tube like structure of agarose is then coated with matrix proteins like matrigel, collagen, fibronectin, laminin, gelatin etc. The coated agarose dishes were also layered with mouse or human endometrial stromal cells obtained from primary cultures or cell lines. The EBs were placed carefully in the cavity created or flushed inside the tube using a bent pasture pipette. The cells were cultured in normal standard EB media.
The EBs adhere and outgrows spreading out as a monolayer of cells on the extracellular matrix. Some cells invaded the surrounding agarose by day 10. A failure to implant/outgrow within ten days on this matrix after exposure to the drug/molecule indicates an abnormality. However, some drugs/could also support/enhance the process of attachment and outgrowth of the EBs. These molecules were screened for several other possible applications, though these may not necessarily be safe for embryonic development.
Four day old EBs were cultured on agarose and fibronectin coated surfaces. […] However, as Y27632 supports and enhances outgrowth, the effect of this drug on the expression profiles of the lineage markers and other genes needs to be screened for evaluating effect on normal development.
The model consists of a culture plate which is coated with Low melting (0.5%) agarose, A well of various depths is created in the agarose by various means eg: putting sterile filter paper disks while casting the gel and removing them latter. The gel is then coated with extracellular matrix components like fibronectin, collagen, laminin, etc. Human endometrial stromal fibroblast cell line CRL4003 is grown on this extracellular matrix as a monolayer. The spherical embryoid bodies or embryo like entities at day 4.5 are injected or pipetted into these cavities. The attachment is allowed in a culture media regularly used for hESC culture, without FGF2 supplementation (FIG. 1).
3. Lineage induction studies: The embryoid bodies after attachment to the implantation site differentiates to all lineages.
Method: Spherical Cytic EBs were collected on day 4.5 and exposed to the continuous presence of Y27632 (various doses were used). […] The control cytic EB had however just attached with smaller area of outgrowth showing that this dose of Y27632 can help in initial implantation of embryo during pregnancy.

A further data set has as its system HUES 9 EB. Kind of data set: Expression profiles of lineage, pluripotency, epigenetic and imprinted genes in day 4.5 spherical EBs (HUES 9). Further details: key: The sign ‘+’ indicates expression of the gene; the sign “−” indicates non-expression of the gene. Particulars: HUES 9 EB D4.5 LPS. On the procedure: RT-PCR: Total RNA from cells was isolated using TRIZOL-LS Reagent (Invitrogen) as per the manufacturer's protocol. Complementary DNA was synthesized using the SuperScript III First-Strand Synthesis System (Invitrogen) as per the manufacturer's instructions. Polymerase Chain Reaction (PCR) was carried out using 1U Tag DNA Polymerase (Sigma) and MgCl2 to a final concentration of 1.5 mM in a total volume of 25 μl/reaction. β-actin and GAPDH were used as the housekeeping controls. PCR cycles consisted of an initial denaturation at 95° C. for 5 minutes followed by 35 amplification cycles of denaturation at 94° C. for 45 seconds, annealing for 45 seconds, and extension at 72° C. for 45 seconds and final extension at 72° C. for 10 minutes.
Examples of changes in the expression profiles/patterns of lineage markers, pluripotency markers, epigenetic markers and imprinted genes, in day 4.5 spherical cavitating/cytic embryoid bodies upon exposure to compounds like lipopolysaccharide (LPS), Rho kinase inhibitor (Y27632), Azacytidine (Aza), and biologicals like an Uvomorulin antibody (UVO) are given in the table nos. 9-12 below. The sign ‘+’ indicates expression of the gene and the sign “−” indicates non-expression of the gene.

With lipopolysaccharide [LPS], in the data set on EBs [1], the “expression of Nestin, βIII-tubulin and GATA4 (RT-PCR)” value is given as “positive expression”; the “expression of mesoderm markers BMP2, Hand1, BMP4 and Brachury (RT-PCR)” value is “silenced”. Further, in the data set with EBs [1] (not found in normal EBs), the “expression of HMGB1 (RT-PCR)” value was “positive expression”. In addition, the “attachment and outgrowth of EBs” value with EBs [2] (four day old EBs on agarose and fibronectin coated surfaces, 15 pg/ml and above) is recorded as “completely inhibited”. In addition, the “degeneration, attachment and outgrowth of EBs in implantation model” value in the data set on EBs [2] (high dose, 48 hrs) was “degeneration of the EBs, and they failed to attach and outgrow”. Also, the “ability of attached EBs to give rise to all lineages” value in the data set with EBs [2] (lineage induction studies, in presence of the compound) is recorded as “compromised”. Further, in the data set with HUES 9 EB (control +), the ABCG2 gene expression result is on record as “−”, the BMP4 gene expression entry is on record as “−”, the BRACHURY gene expression result was “−” and the CDH1 gene expression entry was “−”. For the same substance, in the data set on HUES 9 EB (control +), the Dlk1 gene expression result is recorded as “−”, the GATA2 gene expression entry was “−”, the HAND1 gene expression entry is listed as “−” and the SDHD gene expression entry is on record as “−”. For the same substance, in the data set with HUES 9 EB (control +), the cTNT gene expression entry was “−” and the hANP gene expression result is given as “−”. In the data set with HUES 9 EB (control −), the DPYS gene expression entry is reported as “+” and the HMGB1 gene expression entry is on record as “+”.
